For data set [1], the system named is HBV. The experiment in a line: In vitro antiviral IC50 compared with Lamifudine in the same human liver cell line. The data set is classed as cell-based. As to conditions: human liver cell line as the host. From the text:
The potency difference is significant.

Data set [2] can be described thus: Cell viability MTT assay in HepG2.2.15 cells. The class given is cell-based. Particulars: human, 0-320 μM. As to the method: (§1) HepG2.2.15 and HuS-E/2 cells were seeded at 1×10^4 cells/well in a 96-well plate for 20 h, then the cells were treated with the tested compounds at various concentration (0-500 μM) for 48 h. After the treatment, cell viability was examined using MTT [3-(4,5-dimethylthiazol-2-yl)-2,5-diphenyl tetrazolium bromide] assay (Sigma Chemical Co.). Briefly, a final concentration of 0.5 mg/ml MTT was added to each well and the samples were incubated for 1 h at 37° C., and then the supernatant was aspirated. The MTT-formazan crystals formed by metabolically viable cells were dissolved in 70 μl of DMSO, and the absorbance at 550 nm was measured on a microplate reader.
(§2) The compounds used were SH-001, SH-002, and SH-003. Before testing their potential antiviral effect on HBV and HDV infection, we first examined their toxicity on VeroE6 cells, HepG2.2.15 cells and HuS-E/2 immortalized human primary hepatocytes cells at concentration from 0 to 320 μM as indicated.

The nature of data set [3]: Cell viability MTT assay in Vero E6 cells. The class given is cell-based. Particulars: African green monkey. As to the method:
as §1, §2
For orientation: Tetrazolium dyes change colour on reduction, which living cells bring about.

The next data set concerns HDV. The experiment in a line: Inhibition of HDV infection/replication in HuS-E/2 cells (HDV RNA by real-time PCR). As to conditions: for HDV RNA levels reduced to (percentage of non-drug-treated control): HuS-E/2 cells, 18 h infection + 48 h; for IC50: Hepatitis delta virus, HuS-E/2, read-out: IC50 (HDV RNA); for HDV replication (in words): HuS-E/2 human hepatocytes.
Data set [4] can be described thus: Cell viability MTT assay in HuS-E/2 cells. The class given is cell-based. Particulars: human. As to the method:
as §1, §2

Data set [5] relates to HBV. The data set is described as follows: Inhibition of HBV replication in HepG2.2.15 cells (HBsAg and HBeAg by ELISA, HBV DNA by real-time PCR). The data set is classed as cell-based, Hepatitis B virus (ayw subtype). Particulars: 48 h; for HBeAg levels reduced to (percentage of non-drug-treated control) / HBsAg levels reduced to (percentage of non-drug-treated control) / amount of HBV DNA in culture medium: 10 μM; for HBeAg levels reduced to (percentage of non-drug-treated control) / HBsAg levels reduced to (percentage of non-drug-treated control): culture medium; for HBeAg levels reduced to (percentage of non-drug-treated control) / HBsAg levels reduced to (percentage of non-drug-treated control) / levels of HBeAg in the culture supernatant (in words) / levels of HBsAg in the culture supernatant (in words) / IC50: ELISA; for amount of HBV DNA in culture medium: untreated cells 3.43*10^5 copies/ml; for levels of HBeAg in the culture supernatant (in words) / levels of HBsAg in the culture supernatant (in words) / HBV DNA (in words) / IC50: HepG2.2.15 cells; for HBV DNA (in words): Q-PCR, dose-dependent; for IC50: Hepatitis B virus, estimated. From the text: Plasmid p1.3HBcl, which contains a 1.3-fold HBV genome (ayw subtype), was used as standard in parallel PCR reactions. The results are expressed as a percentage of the non-drug-treated positive control (NT) and are shown as mean±SD for three independent experiments.
Continuous HBV proliferation can be achieved in HepG2.2.15 cells (RRID:CVCL_L855) stably transfected with the HBV genome of the ayw subtype. HepG2.2.15 cells were maintained in Dulbecco's modified Eagle medium (DMEM; Invitrogen) supplemented with 10% heat-inactivated fetal bovine serum (FBS; Thermo) plus 100 units of penicillin and 100 μg of streptomycin per ml (both from Invitrogen).
The viruses were then collected from the supernatant. Q-PCR was used to detect HBV DNA as an index of efficiency of HBV replication. Next, the HBV HBsAg and HBeAg were examined by ELISA assay.
The culture medium from compound-treated HepG2.2.15 cells was clarified by centrifugation at 1,000×g at 4° C. for 10 min, and then the supernatant was layered on top of a 20% sucrose cushion (20% sucrose, 20 mM HEPES, pH 7.4, 0.1% bovine serum albumin [BSA]) and centrifuged at 197,000×g for 3 h at 4° C. to pellet the HBV particles. The particles were then concentrated 100 fold to detect HBV DNA.
Q-PCR was performed to detect HBV DNA as an efficiency index of HBV replication. Moreover, the HBV HBsAg and HBeAg were examined by ELISA assay.

The structures appear in SMILES notation.

Experimental for HDV: HDV genome was measured by RT-PCR and expressed as the percentage of the value for the non-drug-treated controls (NT). Control PCRs were performed for endogenous GAPDH mRNA as the loading control. […] The results are the mean±SD for three independent experiments.
HuS-E/2 cells that retain primary hepatocyte characteristics after prolonged culture were utilized for HDV infection. For HDV infection, HuS-E/2 cells were differentiated with 1% DMSO for 5-7 days, and HDV virus particles were added to infect and replicate in HuS-E/2 cells (MOI=10) as described by Huang et al. (J Virol. 2012 September; 86(17):9443-53. Epub 2012 Jun. 27) The HuS-E/2 cells are useful to assay infectivity of HDV, and screening of anti-HDV agents.
The compounds were added to the medium at the indicated concentration during infection with HDV for 18 h, then the infected cells were incubated in medium containing the compounds for further 48 h. Real-time PCR was performed to detect HDV RNA as an efficiency index of HDV infection.
Total DNA was extracted with a Genomic DNA isolation kit (Nexttec Biotechnologie, Germany). Total RNA was isolated from cultured cells using TRIzol® reagent (Invitrogen). Reverse transcription was performed with the RNA templates, AMV reverse transcriptase (Roche), and oligo-dT primer. The products were subjected to real-time PCR with primer sets of specific genes and SYBR Green PCR Master Mix (Bio-Rad). The primer sets used for HBV DNA and HDV RNA were as described by Huang et al. (J Virol. 2012 September; 86(17):9443-53. Epub 2012 Jun. 27) The results were analyzed with the iCycler iQ real-time PCR detection system (Bio-Rad).
The infected cells were then washed and incubated in medium containing the tested compounds for further 48 h, and real-time PCR was used to detect HDV mRNA as an efficiency index of HDV infection.

`Nc1ccn([C@@H]2CS[C@H](CO)O2)c(=O)n1` [Lamifudine, reference compound] returned an IC50 in the data set on HBV [1] of 0.358 µM.

On to `O=C(O)c1ccc2c(c1)nc(Nc1cccc(Cl)c1)c1ccncc12` [SH-001, Silmitasertib], for which the CC50 at 48 h in data set [2] is > 195 µM; in data set [3] (VeroE6 cells, 48 h, MTT, 0-320 μM, read-out: CC50), > 205 µM; in data set [4] (HuS-E/2 cells, 48 h, MTT, 0-320 μM, read-out: CC50), > 195 µM. In addition, the IC50 in the data set on HBV [1] (Hepatitis B virus) is ≥ 0.005 µM; with HDV it was ~0.146 µM; in the data set on HBV [5] (read-out: IC50 (HBeAg)) it was 12 µM; with HBV [5] (read-out: IC50 (HBsAg)) it was 6.63 µM. The “HDV RNA levels reduced to (percentage of non-drug-treated control)” value in the data set with HDV (2.5 μM) is listed as 28.8±22.8%; with HDV (5 μM) it was 8.7±1.3%. Besides, the “HDV replication (in words)” value in the data set with HDV is on record as “significantly inhibited”. For the same compound, in the data set with HBV [5], the “HBeAg levels reduced to (percentage of non-drug-treated control)” value worked out at 53.66±3.02%. In the data set with HBV [5], the “HBsAg levels reduced to (percentage of non-drug-treated control)” value turned out to be 39.85±1.78%. Further, the “amount of HBV DNA in culture medium” value with HBV [5] is listed as 5.51*10^4 copies/ml. Further, the “levels of HBeAg in the culture supernatant (in words)” value in the data set on HBV [5] is on record as “significantly decreased”. Further, the “levels of HBsAg in the culture supernatant (in words)” value in the data set with HBV [5] was “significantly decreased”. For the same compound, the “HBV DNA (in words)” value with HBV [5] is recorded as “repressed”.

Consider `O=C1NC(=O)/C(=C/c2cnn3c(NC4CC4)cc(Nc4cc(Cl)ccc4F)nc23)N1` [SH-002], for which the 50% cytotoxic concentration (CC50) at 48 h in data set [2] is > 164 µM. Further, the CC50 at 48 h in data set [3] is > 61.3 µM. The IC50 in the data set on HBV [1] (Hepatitis B virus) is ≥ 0.005 µM. In the data set on HDV (0.1 μM), the “HDV RNA levels reduced to (percentage of non-drug-treated control)” value is listed as 53.1±16.8%. For the same compound, in the data set on HDV (0.2 μM), the “HDV RNA levels reduced to (percentage of non-drug-treated control)” value stood at 40.8±18.6%. Besides, in the data set on HDV, the IC50 was ~0.069 µM and the “HDV replication (in words)” value was “significantly inhibited”. For the same compound, the CC50 at 48 h in data set [4] is > 164 µM. Besides, in the data set with HBV [5], the “HBeAg levels reduced to (percentage of non-drug-treated control)” value was 61.18±6.43%, the “HBsAg levels reduced to (percentage of non-drug-treated control)” value is 52.01±3.05%, the “amount of HBV DNA in culture medium” value was 3.13*10^4 copies/ml and the “levels of HBeAg in the culture supernatant (in words)” value is listed as “significantly decreased”. In addition, in the data set with HBV [5], the “levels of HBsAg in the culture supernatant (in words)” value is on record as “significantly decreased” and the “HBV DNA (in words)” value is given as “repressed”. Also, the IC50 in the data set on HBV [5] (read-out: IC50 (HBeAg)) was 168 µM. In the data set with HBV [5] (read-out: IC50 (HBsAg)), the IC50 was 11.8 µM.

Take `CC(N)C(=O)OCN1C(=O)N/C(=C\c2cnn3c(NC4CC4)cc(Nc4cc(Cl)ccc4F)nc23)C1=O` (stereo not shown) [SH-003]: the CC50 at 48 h in data set [3] is > 205 µM.

A word on the IC50: it is the concentration at which inhibition is half-maximal. What is called CC50 is the concentration giving 50% cytotoxicity.

These data come from patent US20210308137A1, “ANTIVIRAL COMPOUNDS AND METHOD FOR TREATING HEPATOTROPIC VIRAL INFECTION, PARTICULARLY HEPATITIS B AND HEPATITIS D” (priority 2020, published 2021).
